A word on the IC90: it is the concentration needed for an effect of 90%. A low value points to greater potency.

For eleven compounds, IC90 results are on record in patent US12054494B2, “Compound with anticancer activity” (KYOWA KIRIN CO., LTD., priority 2018, dated 2024).

Molecules are shown by their SMILES.

This experiment deals with SU-DHL-4 cells. The experiment is described as follows: Inhibitory effect on cell viability (Cell Counting Kit-8). Type of experiment: cell-based. Conditions: Homo sapiens, 72 hours culture with test compound, concentration showing 90% inhibition rate of cell viability. The method in brief: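 SU-DHL-4 cells (2000/well, RPMI1640 with 10% FBS) precultured 18-25 h, then exposed to a 9-step compound dilution series (0.1% DMSO final) for 72 h at 37° C. Viability by CCK-8 absorbance at 450 nm after 2-3 h; IC90 computed from inhibition rate relative to untreated and cell-free wells.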

The compound `CCC(=O)N1c2ccccc2[C@H](Nc2ccc(-n3cc(CNC(=O)c4ccc(C5=NCc6nnc(C)n6-c6sc(C)c(C)c65)cc4)nn3)cc2)C[C@@H]1C` [Compound 14n, N-((1-(4-(((2S,4R)-2-Methyl-1-propionyl-1,2,3,4-tetrahydroquinolin-4-yl)amino)phenyl)-1H-1,2,3-triazol-4-yl)methyl)-4-(2,3,9-trimethyl-6H-thieno[3,2-f][1,2,4]triazolo[4,3-a][1,4]diazepin-4-yl)benzamide] returned an IC90 of 0.05 nM.

Regarding `Cc1sc2c(c1C)C(c1ccc(C(=O)NCC(=O)CNC(=O)c3ccc(C4=NCc5nnc(C)n5-c5sc(C)c(C)c54)cc3)cc1)=NCc1nnc(C)n1-2` [Compound 14o, N,N′-(2-Oxopropane-1,3-diyl)bis(4-(2,3,9-trimethyl-6H-thieno[3,2-f][1,2,4]triazolo[4,3-a][1,4]diazepin-4-yl)benzamide)], the IC90 came out at 30.9 nM.

For the compound `Cc1sc2c(c1C)C(c1ccc(C(=O)N3CCC(NC(=O)c4ccc(C5=N[C@@H](CC(=O)OC(C)(C)C)c6nnc(C)n6-c6sc(C)c(C)c65)cc4)CC3)cc1)=NCc1nnc(C)n1-2` [Compound 14p, tert-Butyl (S)-2-(2,3,9-trimethyl-4-(4-((1-(4-(2,3,9-trimethyl-6H-thieno[3,2-f][1,2,4]triazolo[4,3-a][1,4]diazepin-4-yl)benzoyl)piperidin-4-yl)carbamoyl)phenyl)-6H-thieno[3,2-f][1,2,4]triazolo[4,3-a][1,4]diazepin-6-yl)acetate], the 90% effect level (IC90) was put at 1.27 nM.

Turning to `CCC(=O)N1c2ccccc2[C@H](Nc2ccc(C(=O)NCc3cn(-c4ccc(C5=NCc6nnc(C)n6-c6sc(C)c(C)c65)cc4)nn3)cc2)C[C@@H]1C` [Compound 14q, 4-(((2S,4R)-2-Methyl-1-propionyl-1,2,3,4-tetrahydroquinolin-4-yl)amino)-N-((1-(4-(2,3,9-trimethyl-6H-thieno[3,2-f][1,2,4]triazolo[4,3-a][1,4]diazepin-4-yl)phenyl)-1H-1,2,3-triazol-4-yl)methyl)benzamide], the concentration for an effect of 90% (IC90) was 0.17 nM.

As for `CCC(=O)N1c2ccccc2[C@H](Nc2ccc(-c3cn4c(n3)CN(C(=O)c3ccc(C5=NCc6nnc(C)n6-c6sc(C)c(C)c65)cc3)CC4)cc2)C[C@@H]1C` [Compound 14r, 1-((2S,4R)-2-Methyl-4-((4-(7-(4-(2,3,9-trimethyl-6H-thieno[3,2-f][1,2,4]triazolo[4,3-a][1,4]diazepin-4-yl)benzoyl)-5,6,7,8-tetrahydroimidazo[1,2-a]pyrazin-2-yl)phenyl)amino)-3,4-dihydroquinolin-1(2H)-yl)propan-1-one], the IC90 was 1.47 nM.

In turn, `CCC(=O)N1c2ccccc2[C@H](Nc2ccc(SCCNC(=O)c3ccc(C4=NCc5nnc(C)n5-c5sc(C)c(C)c54)cc3)cc2)C[C@@H]1C` [Compound 14s, N-(2-((4-(((2S,4R)-2-Methyl-1-propionyl-1,2,3,4-tetrahydroquinolin-4-yl)amino)phenyl)thio)ethyl)-4-(2,3,9-trimethyl-6H-thieno[3,2-f][1,2,4]triazolo[4,3-a][1,4]diazepin-4-yl)benzamide] came in with an IC90 of 2.2 nM.

Regarding `CCC(=O)N1c2ccccc2[C@H](Nc2ccc(-c3nnc(CNC(=O)c4ccc(Cn5c(C(=O)OCCN(C)C)cc6c5CCCC6=O)cc4)o3)cc2)C[C@@H]1C` [Compound 15b, 2-(Dimethylamino)ethyl 1-(4-(((5-(4-(((2S,4R)-2-methyl-1-propionyl-1,2,3,4-tetrahydroquinolin-4-yl)amino)phenyl)-1,3,4-oxadiazol-2-yl)methyl)carbamoyl)benzyl)-4-oxo-4,5,6,7-tetrahydro-1H-indole-2-carboxylate], the IC90 was determined as 1.07 nM.

`CCC(=O)N1c2ccccc2[C@H](Nc2ccc(-n3cc(CCNC(=O)c4ccc(Cn5c(C(=O)OCCN(C)C)cc6c5CCCC6=O)cc4)nn3)cc2)C[C@@H]1C` [Compound 15c, 2-(Dimethylamino)ethyl 1-(4-((2-(1-(4-(((2S,4R)-2-methyl-1-propionyl-1,2,3,4-tetrahydroquinolin-4-yl)amino)phenyl)-1H-1,2,3-triazol-4-yl)ethyl)carbamoyl)benzyl)-4-oxo-4,5,6,7-tetrahydro-1H-indole-2-carboxylate]: the IC90 worked out at 0.3 nM.

In turn, `CCC(=O)N1c2ccccc2[C@H](Nc2ccc(-c3cnn(CCNC(=O)c4ccc(Cn5c(C(=O)OCCN(C)C)cc6c5CCCC6=O)cc4)c3)cc2)C[C@@H]1C` [Compound 15d, 2-(Dimethylamino)ethyl 1-(4-((2-(4-(4-(((2S,4R)-2-methyl-1-propionyl-1,2,3,4-tetrahydroquinolin-4-yl)amino)phenyl)-1H-pyrazol-1-yl)ethyl)carbamoyl)benzyl)-4-oxo-4,5,6,7-tetrahydro-1H-indole-2-carboxylate] gave an IC90 of 0.16 nM.

Compound `CCC(=O)N1c2ccccc2[C@H](Nc2ccc(-n3cc(CNC(=O)c4ccc(Cn5c(CC)cc6c5CCCC6=O)cc4)nn3)cc2)C[C@@H]1C` [Compound 15f, 4-((2-Ethyl-4-oxo-4,5,6,7-tetrahydro-1H-indol-1-yl)methyl)-N-((1-(4-(((2S,4R)-2-methyl-1-propionyl-1,2,3,4-tetrahydroquinolin-4-yl)amino)phenyl)-1H-1,2,3-triazol-4-yl)methyl)benzamide] registered an IC90 of 0.04 nM.

The compound `CCC(=O)N1c2ccccc2[C@H](Nc2ccc(C(=O)NCc3cn(-c4ccc(Cn5c(CC)cc6c5CCCC6=O)cc4)nn3)cc2)C[C@@H]1C` [Compound 15h, N-((1-(4-((2-Ethyl-4-oxo-4,5,6,7-tetrahydro-1H-indol-1-yl)methyl)phenyl)-1H-1,2,3-triazol-4-yl)methyl)-4-(((2S,4R)-2-methyl-1-propionyl-1,2,3,4-tetrahydroquinolin-4-yl)amino)benzamide] registered an IC90 of 2.32 nM.
